Where “and” joins values, the source holds several entries; their conditions need not be identical. Identical values can stand only once.
How the values were obtained:
MDA-MB-231 cells = test: MTS cytotoxicity assay of [(WR)8WKβA]-Dox, MDA-MB-231; conditions: 5 μM
Experimental: Cytotoxic activity of the synthesized conjugate and noncovalent mixtures of cyclic [WR]9+Dox was determined in SK-OV-3, MDA-MB-231, MCF-7, MES-SA/MX2, and H9C2 cells. […] An appropriate growth medium was used for each cell line (for SK-OV-3: McCoy's […] with L-glutamine containing fetal bovine serum (FBS) (10%) and penicillin or streptomycin (1%); for MDA-MB-231 and MCF-7 cells: DMEM/F12 (1:1) (1×) with L-Glutamine and 15 mM HEPES containing FBS (10%) and penicillin or streptomycin (1%), and for MES-SA/MX2 and H9C2 cells: Minimum Essential Medium Eagle with Earle's salts and sodium bicarbonate, without L-glutamine containing FBS (10%), and penicillin or streptomycin (1%)). The cells were seeded in a complete growth medium 24 h prior to the experiment. […] The incubation was continued for 3 h.

H9C2 cells [1] = test: Confocal microscopy uptake in H9C2 (Example 2); type: cell-based, rat; conditions: 5 μM, 24 h
Experimental: Confocal Microscopy. MDA-MB-231, SK-OV-3, MES-SA/MX2, and H9C2 cells (7×10^4 cells/well) were seeded with a medium on a coverslip 24 h prior to the experiment in six well plates. After 24 h, the medium was changed with opti-MEM. The cells were treated with Dox and peptide-Dox conjugate (5 μM) in opti-MEM for 24 h. After 24 h incubation, the media were removed, and cells were washed three times with PBS in each well. Then, the cells were fixed with 3.7% formaldehyde for 10 min, followed by washing three times with PBS (pH 7.6) for 5 min. DAPI (40 μL) for staining the nuclei was placed on a microscope slide, and it was covered with the coverslip with the cell-attached side facing down. The slides were left standing horizontally in a dark place with airflow to allow faster drying. The cells were photographed using Nikon Instruments A1 Confocal Laser Microscope Series and NIS-Elements software (AR 4.30.02, 64 bit). The scan mode was selected as Galvano. The magnification and resolution were set at 40× and 1024, respectively.

H9C2 cells [2] = test: Fluorescence/confocal microscopy uptake in heart cells (Example 1); type: cell-based, rat; conditions: 5 μM
Experimental: Fluorescence and Confocal Microscopy. CCRF-CEM, SKOV-3, and H9C2 cells were seeded with EMEM media overnight on coverslips in six-well plates. Then the medium was removed and washed with opti-MEM. The cells were treated with Dox and the peptide-Dox conjugate (5 μM) in opti-MEM for different time intervals (3, 24, and 72 h) at 37° C. After 3 h incubation, the media containing the compound were removed, followed by washing with PBS three times. Then coverslips were placed on a drop of mounting medium on a microscope slide with the cell-attached side facing down. Fluorescence microscopy and laser scanning confocal microscopy were carried out using a Keyence Microscope System and Nikon AIR system, respectively. The cells were imaged using rhodamine and phase contrast channels.
In a separate experiment, confocal microscopy was used as follows. (i) Internalization of [R5K]W7A-Dox conjugate vs. free Dox was determined in Dox-resistant MDA-MB-231 and ME5-SA/MX2 cells as compared to the wild-type MDA-MB-231 cells. The cellular internalization was evaluated in Dox-sensitive and -resistant cells to study the effect of overexpression of the MDR efflux proteins on the Dox internalization by the peptide conjugates. […] (ii) Internalization of Dox and [R5K]W7A-Dox was determined into normal heart muscle cells. […]

LLC-PK1 kidney cells = test: Cytotoxicity, MTS assay, normal kidney cells; conditions: 5 μM
Experimental: In Vitro Cytotoxicity Assay of Peptide-Drug Conjugates. The cytotoxicity of the compounds was determined by using human leukemia cell line (CCRF-CEM), human ovarian adenocarcinoma cells (SKOV-3) cells, kidney cell line (LLC-PK1), gastric adenocarcinoma cells (AGS), and heart/myocardium cells (H9C2) to evaluate the toxicity of the generated peptides according to a previously reported procedure (Rahman, A.; et al. Proc. Am. Assoc. Cancer Res. 26:2295-2299, 1985, which is incorporated herein by reference). In brief, CCRF-CEM cells were seeded at 50,000 cells in 0.1 mL per well in 98-well plates. In the case of other cell lines, the cells were seeded at 5,000 cells (0.1 mL per well in 96-well plates). The cells were seeded in medium (RPMI-1640 containing FBS (10%)), 24 h prior to the experiment. The compounds at different concentrations (10-50 μM) were added to each well in triplicate and incubated for 24 and 72 h at 37° C. in a humidified atmosphere of 5% CO2. Dox (5 μM) was used as a positive control, while water and cell culture medium were used as negative controls. The compounds were dissolved in water; water was used as a negative control to normalize the data. After the incubation period, MTS reagent (20 μL) was added to each well. The incubation was continued for 2 h. Cell viability was then determined by determination of the fluorescence intensity at 490 nm using a SpectraMax M2 microplate spectrophotometer.

Structure (SMILES): COc1cccc2c1C(=O)c1c(O)c3c(c(O)c1C2=O)C[C@@](O)(C(=O)CO)C[C@@H]3O[C@H]1C[C@H](N)[C@H](O)[C@H](C)O1 [Dox, doxorubicin, reference compound]
- cell viability (MDA-MB-231 cells; 24 h): 79%
- cell viability (MDA-MB-231 cells; 72 h): 37%
- inhibition of cell viability/proliferation (MDA-MB-231 cells; 72 h): 63%
- uptake in heart cells (confocal microscopy, words) (H9C2 cells [1]): high uptake
- uptake in heart cells (microscopy, words) (H9C2 cells [2]): significant uptake
- reduction of cell survival (LLC-PK1 kidney cells; LLC-PK1, 24 h): 64%
- reduction of cell survival (LLC-PK1 kidney cells; LLC-PK1, 72 h): 77%
- reduction of viability of kidney cells (LLC-PK1 kidney cells; LLC-PK1, time not stated): 85%
- Cell Viability (%) after 24 h (LLC-PK1 kidney cells; normal kidney LLC-PK1): 44 ± 0% and 48 ± 2%

Source: patent US12070505B2, “Targeted peptide-drug conjugates” (priority 2021, dated 2024)
